Counter-ions that a name gives are not always drawn. Like-named read-outs stand apart in the source and are kept apart here.
Experiments:
Erg11p = Erg11p (Saccharomyces cerevisiae, UniProt P10614); settings: 25 target and 25,000 decoy cells (1:1000), 225 μl, 30° C., up to ten days
Procedure: Target yeast cells overexpressing the ERG11 gene and GFP were mixed with decoy cells at a ratio of 1:1000 and portioned into 96-well plates. Each well contained 25 target cells and 25,000 decoy cells in 0.225 ml YM medium plus 2% casamino acids. 560 generic drugs from the MicroSource™ library were dispensed to each well to a final concentration of 5 μg/ml or 0.5 μg/ml and 1% DMSO. The plates were incubated at 30° C. for ten days.
To determine the specificity of the TDS assay, a chemical library of 560 compounds was screened using the same strains described in FIG. 2. […] The conditions chosen for the co-culture were 25 target cells and 25,000 decoy cells (1:1000 target: decoy ratio) in a volume of 225 μl.
Overnight cultures of the target and decoy cells were grown in YM medium plus 2% casamino acids to maintain selection for both episomal plasmids. One large batch of fresh medium (YM-Cas) was prepared that contained both target and decoy cells. This culture was diluted to 1×10^5 cells/ml and dispensed into the 96-well plates. Drugs from the Microsource library were then added to the cultures at two concentrations: 5 μg/ml plus 1% DMSO; and 0.5 μg/ml plus 0.1% DMSO. The plates were incubated at 30° C. Fluorescence and O.D.600 measurements were taken twice daily for ten days.

[1] = biological target: T1, ERG11 gene product, lanosterol 14α-demethylase (Saccharomyces cerevisiae, UniProt P10614); experiment: TDS co-culture pilot study with clotrimazole: ERG11/GFP-overexpressing target cells mixed with decoy cells, fluorescence readout; assay type: cell-based; settings: 30° C., 88 h
T1 construct: expressed in transfected cells; host or cells: S. cerevisiae target strain ABY676 (plasmids pAB98 GFP, pAB99 ERG11), co-cultured with decoy strain ABY674 (empty vectors YEplac195, YEplac112)
T1 sequence (P10614 whole entry): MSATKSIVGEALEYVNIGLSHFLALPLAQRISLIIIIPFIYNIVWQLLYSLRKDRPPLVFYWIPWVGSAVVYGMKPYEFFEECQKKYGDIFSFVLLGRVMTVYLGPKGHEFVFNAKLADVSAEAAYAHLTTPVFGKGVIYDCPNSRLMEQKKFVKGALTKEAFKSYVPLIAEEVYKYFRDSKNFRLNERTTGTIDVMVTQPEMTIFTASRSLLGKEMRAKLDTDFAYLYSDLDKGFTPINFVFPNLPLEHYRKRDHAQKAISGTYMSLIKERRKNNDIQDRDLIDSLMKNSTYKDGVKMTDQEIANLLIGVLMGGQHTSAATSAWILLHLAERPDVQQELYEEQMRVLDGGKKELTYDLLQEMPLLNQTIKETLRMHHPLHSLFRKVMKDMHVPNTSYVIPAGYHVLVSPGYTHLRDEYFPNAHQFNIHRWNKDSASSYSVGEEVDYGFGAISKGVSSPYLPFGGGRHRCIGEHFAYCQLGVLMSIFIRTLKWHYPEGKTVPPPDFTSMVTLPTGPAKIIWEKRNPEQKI
Procedure: FIG. 2: A Signal to noise ratios of ERG11-target and decoy co-cultures grown in the presence of clotrimazole. Cultures were prepared at various ratios of target: decoy cells (columns). Each ratio was also prepared at various total number of cells per well and are indicated at the top. Clotrimazole, which inhibits the ERG11 gene product, was introduced by serial dilution (rows). The concentrations of clotrimazole are indicated to the left of the table. The volume of medium in each well was 0.225 ml. The plate was allowed to incubate at 30° C. for 88 h. Fluorescence signal was determined by subtracting the fluorescent values from a medium control plate from the fluorescence values of each well in the test plate. Signal to noise ratios were determined by dividing these corrected values with the corresponding values in the no-drug well in the bottom row. B O.D.600 values of co-cultures in each well after growth. C A fluorescent image of the source plate.
To determine the optimal assay conditions, various target:decoy ratios were tested in the presence of different clotrimazole concentrations (FIG. 2). Clotrimazole is an anti-fungal compound that inhibits the […] gene product, lanosterol 14α-demethylase, a sterol biosynthetic enzyme (Georgopapadakou and Walsh, 1996, Antimicrob Agents Chemother 40:279-291). […]
Target and decoy cells were mixed at 1:10, 1:100 and 1:1000 ratios in the presence of various concentrations of clotrimazole. […] Following incubation at 30° C. for 88 h, the fluorescence from each well was determined. The fluorescent values were corrected for the background fluorescence of the medium are represented as the fold increase over the fluorescent signal from the corresponding no-drug treatment.
The amount of growth of the cells was determined by measuring optical density at 600 nm in a Molecular Devices Spectra Max 250 plate spectrophotometer (FIG. 2B). A fluorescent image of the plate, which served as the source for quantitation of the fluorescent signals, is also presented (FIG. 2C).

[2] = test system: yeast target and decoy cells; experiment: Growth (O.D.600) of the target/decoy yeast co-cultures in the MicroSource library screen; assay type: cell-based, Saccharomyces cerevisiae; settings: both concentrations (5 μg/ml and 0.5 μg/ml)
Procedure: The plates were incubated at 30° C.

Sequence of Erg11p (P10614 whole entry): as above

Structure (SMILES): Clc1ccccc1C(c1ccccc1)(c1ccccc1)n1ccnc1 [clotrimazole]
- fluorescent signal of co-culture versus no-drug treatment (Erg11p; 0.5 μg/ml drug plus 0.1% DMSO): significant fluorescent signal
- fluorescent signal of co-culture versus no-drug treatment (Erg11p; 5 μg/ml drug plus 1% DMSO): significant fluorescent signal
- clotrimazole concentration range producing significant fluorescent signals ([1]; 1:10 and 1:100 target:decoy ratios, highest density of cells per well): 0.2 to 5.6 µg/mL
- clotrimazole concentration range producing significant fluorescent signals ([1]; 1:10 and 1:100 target:decoy ratios, serial dilutions of cells): 0.2 to 2.8 µg/mL
- clotrimazole concentration range producing significant fluorescent signals ([1]; 1:1000 target:decoy ratio, each of the cell densities): 0.2 to 5.6 µg/mL

Structure (SMILES): CCCCOc1ccc(C(=O)CCN2CCCCC2)cc1 [dyclonine-HCl]
- growth inhibition of co-culture [2]: severely inhibited growth

Structure (SMILES): CN[C@@H](C)[C@H](O)c1ccccc1 [ephedrine-HCl]
- growth inhibition of co-culture [2]: severely inhibited growth

Structure (SMILES): CC(=O)N1CCN(c2ccc(OCC3COC(Cn4ccnc4)(c4ccc(Cl)cc4Cl)O3)cc2)CC1 (stereo not drawn) [ketoconazole]
- fluorescent signal of co-culture versus no-drug treatment (Erg11p; 0.5 μg/ml drug plus 0.1% DMSO): neither inhibited growth nor produced a positive signal
- fluorescent signal of co-culture versus no-drug treatment (Erg11p; 5 μg/ml drug plus 1% DMSO): significant signal

Structure (SMILES): Clc1ccc(COC(Cn2ccnc2)c2ccc(Cl)cc2Cl)c(Cl)c1 (stereo not drawn) [miconazole]
- fluorescent signal of co-culture versus no-drug treatment (Erg11p; 0.5 μg/ml drug plus 0.1% DMSO): significant positive signals
- fluorescent signal of co-culture versus no-drug treatment (Erg11p; 5 μg/ml drug plus 1% DMSO): too severe a growth inhibition to produce positive signals

Structure (SMILES): C[CH2][Hg][S]c1ccccc1C(=O)[O-].[Na+] [thimerosol]
- growth inhibition of co-culture [2]: severely inhibited growth
